Measurements published in patent publication US20200231614A1, “PSMA TARGETED RADIOHALOGENATED UREAS FOR CANCER RADIOTHERAPY” (THE JOHNS HOPKINS UNIVERSITY, priority 2015, published 2020).
Read-outs that look alike come from different tables or passages of the source.

System: PSMA + PC-3 PiP and PSMA − PC-3 flu tumor xenografts
Settings: for Biodistribution: PC-3 PiP: PSMA+ tumor xenograft; for Biodistribution: PC-3 flu: PSMA− tumor xenograft
[1] = 21 H post-injection, comparative Table 13

**Q.** Which results are given for N=C(N)NCc1ccc(C(=O)NCCCCC(NC(=O)CCCCCCC(=O)NCCCC[C@H](NC(=O)N[C@@H](CCC(=O)O)C(=O)O)C(=O)O)C(=O)O)cc1[211At] (stereo partly shown) [[^211At] labeled PSMA-904]?
**A.** Biodistribution: Lrg Int. (1 H post-injection): 0.75 ± 0.98 % ID/g; Biodistribution: Sm int. (1 H post-injection): 33.9 ± 5.49 % ID/g; Biodistribution: bladder (1 H post-injection): 1.17 ± 0.20 % ID/g; Biodistribution: blood (1 H post-injection): 0.65 ± 0.33 % ID/g; Biodistribution: heart (1 H post-injection): 0.84 ± 0.27 % ID/g; Biodistribution: kidney (1 H post-injection): 86.5 ± 15.5 % ID/g; Biodistribution: liver (1 H post-injection): 5.11 ± 4.13 % ID/g; Biodistribution: lung (1 H post-injection): 2.24 ± 0.51 % ID/g; Biodistribution: muscle (1 H post-injection): 0.38 ± 0.16 % ID/g; Biodistribution: spleen (1 H post-injection): 9.51 ± 2.76 % ID/g; Biodistribution: stomach (1 H post-injection): 1.64 ± 0.62 % ID/g; Biodistribution: thyroid (1 H post-injection): 0.51 ± 0.16 % ID/g; Biodistribution: Lrg Int. (2 H post-injection): 26.7 ± 15.3 % ID/g; Biodistribution: Sm int. (2 H post-injection): 13.8 ± 10.9 % ID/g; Biodistribution: bladder (2 H post-injection): 1.30 ± 0.24 % ID/g; Biodistribution: blood (2 H post-injection): 0.35 ± 0.03 % ID/g; Biodistribution: heart (2 H post-injection): 0.76 ± 0.11 % ID/g; Biodistribution: kidney (2 H post-injection): 87.7 ± 11.0 % ID/g; Biodistribution: liver (2 H post-injection): 3.80 ± 2.39 % ID/g; Biodistribution: lung (2 H post-injection): 1.96 ± 0.26 % ID/g; Biodistribution: muscle (2 H post-injection): 0.21 ± 0.03 % ID/g; Biodistribution: spleen (2 H post-injection): 4.31 ± 1.96 % ID/g; Biodistribution: stomach (2 H post-injection): 2.86 ± 0.67 % ID/g; Biodistribution: thyroid (2 H post-injection): 1.03 ± 0.26 % ID/g; Biodistribution: Lrg Int. (21 H post-injection): 8.55 ± 5.07 % ID/g; Biodistribution: Sm int. (21 H post-injection): 1.51 ± 0.91 % ID/g; Biodistribution: bladder (21 H post-injection): 1.99 ± 0.54 % ID/g; Biodistribution: blood (21 H post-injection): 0.48 ± 0.13 % ID/g; Biodistribution: heart (21 H post-injection): 1.12 ± 0.27 % ID/g; Biodistribution: kidney (21 H post-injection): 4.38 ± 3.46 % ID/g; Biodistribution: liver (21 H post-injection): 0.59 ± 0.21 % ID/g; Biodistribution: lung (21 H post-injection): 2.89 ± 0.93 % ID/g; Biodistribution: muscle (21 H post-injection): 0.22 ± 0.06 % ID/g; Biodistribution: spleen (21 H post-injection): 2.07 ± 0.68 % ID/g; Biodistribution: stomach (21 H post-injection): 9.36 ± 2.18 % ID/g; Biodistribution: thyroid (21 H post-injection): 3.74 ± 1.42 % ID/g; Biodistribution: PC-3 PiP (1 H post-injection): 22.7 ± 5.42 % ID/g; Biodistribution: PC-3 PiP (2 H post-injection): 21.1 ± 6.16 % ID/g; Biodistribution: PC-3 PiP (21 H post-injection): 12.1 ± 5.03 % ID/g; Biodistribution: PC-3 flu (1 H post-injection): 0.80 ± 0.30 % ID/g; Biodistribution: PC-3 flu (2 H post-injection): 0.52 ± 0.05 % ID/g; Biodistribution: PC-3 flu (21 H post-injection): 0.84 ± 0.23 % ID/g

**Q.** O=C(O)CC[C@H](NC(=O)N[C@@H](CCC(=O)NCCc1ccc([131I])cc1)C(=O)O)C(=O)O [[^131I]HS-549] was tested. Which “Biodistribution: Lrg Int.” value (1 H post-injection) did it give?
**A.** 0.52 ± 0.12 % ID/g

**Q.** What about the “Biodistribution: Sm int.” value (1 H post-injection) of the same compound?
**A.** 1.98 ± 0.30 % ID/g

**Q.** And the “Biodistribution: bladder” value (1 H post-injection)?
**A.** 4.34 ± 2.16 % ID/g

**Q.** What about the “Biodistribution: blood” value (1 H post-injection) of the same compound?
**A.** 5.90 ± 1.05 % ID/g

**Q.** And the “Biodistribution: heart” value (1 H post-injection)?
**A.** 2.30 ± 0.63 % ID/g

**Q.** What about the “Biodistribution: kidney” value (1 H post-injection) of the same compound?
**A.** 106 ± 18.9 % ID/g

**Q.** What about the “Biodistribution: liver” value (1 H post-injection) of the same compound?
**A.** 21.2 ± 4.14 % ID/g

**Q.** What about the “Biodistribution: lung” value (1 H post-injection) of the same compound?
**A.** 4.60 ± 1.09 % ID/g

**Q.** What about the “Biodistribution: muscle” value (1 H post-injection) of the same compound?
**A.** 0.86 ± 0.26 % ID/g

**Q.** And the “Biodistribution: spleen” value (1 H post-injection)?
**A.** 6.76 ± 3.42 % ID/g

**Q.** What about the “Biodistribution: stomach” value (1 H post-injection) of the same compound?
**A.** 0.92 ± 0.20 % ID/g

**Q.** And the “Biodistribution: thyroid” value (1 H post-injection)?
**A.** 1.17 ± 0.43 % ID/g

**Q.** And the “Biodistribution: Lrg Int.” value (2 H post-injection)?
**A.** 1.32 ± 0.25 % ID/g

**Q.** What about the “Biodistribution: Sm int.” value (2 H post-injection) of the same compound?
**A.** 2.42 ± 0.40 % ID/g

**Q.** What about the “Biodistribution: bladder” value (2 H post-injection) of the same compound?
**A.** 2.34 ± 1.04 % ID/g

**Q.** And the “Biodistribution: blood” value (2 H post-injection)?
**A.** 2.92 ± 0.32 % ID/g

**Q.** And the “Biodistribution: heart” value (2 H post-injection)?
**A.** 1.14 ± 0.18 % ID/g

**Q.** And the “Biodistribution: kidney” value (2 H post-injection)?
**A.** 96.6 ± 39.1 % ID/g

**Q.** And the “Biodistribution: liver” value (2 H post-injection)?
**A.** 26.0 ± 3.09 % ID/g

**Q.** What about the “Biodistribution: lung” value (2 H post-injection) of the same compound?
**A.** 2.73 ± 0.66 % ID/g

**Q.** What about the “Biodistribution: muscle” value (2 H post-injection) of the same compound?
**A.** 0.46 ± 0.12 % ID/g

**Q.** What about the “Biodistribution: spleen” value (2 H post-injection) of the same compound?
**A.** 2.71 ± 0.85 % ID/g

**Q.** And the “Biodistribution: stomach” value (2 H post-injection)?
**A.** 0.47 ± 0.17 % ID/g

**Q.** And the “Biodistribution: thyroid” value (2 H post-injection)?
**A.** 0.69 ± 0.29 % ID/g

**Q.** What about the tumor/kidney ratio (2 H post-injection) of the same compound?
**A.** 0.8

**Q.** What about the “Biodistribution: Lrg Int.” value (21 H post-injection) of the same compound?
**A.** 0.63 ± 0.39 % ID/g

**Q.** And the “Biodistribution: Sm int.” value (21 H post-injection)?
**A.** 0.37 ± 0.06 % ID/g

**Q.** What about the “Biodistribution: bladder” value (21 H post-injection) of the same compound?
**A.** 0.65 ± 0.20 % ID/g

**Q.** What about the “Biodistribution: blood” value (21 H post-injection) of the same compound?
**A.** 1.39 ± 0.35 % ID/g

**Q.** And the “Biodistribution: heart” value (21 H post-injection)?
**A.** 0.41 ± 0.09 % ID/g

**Q.** What about the “Biodistribution: kidney” value (21 H post-injection) of the same compound?
**A.** 3.13 ± 1.65 % ID/g

**Q.** And the “Biodistribution: liver” value (21 H post-injection)?
**A.** 1.86 ± 0.51 % ID/g

**Q.** And the “Biodistribution: lung” value (21 H post-injection)?
**A.** 0.87 ± 0.27 % ID/g

**Q.** And the “Biodistribution: muscle” value (21 H post-injection)?
**A.** 0.16 ± 0.04 % ID/g

**Q.** And the “Biodistribution: spleen” value (21 H post-injection)?
**A.** 0.29 ± 0.12 % ID/g

**Q.** And the “Biodistribution: stomach” value (21 H post-injection)?
**A.** 0.14 ± 0.04 % ID/g

**Q.** What about the “Biodistribution: thyroid” value (21 H post-injection) of the same compound?
**A.** 0.36 ± 0.05 % ID/g

**Q.** And the tumor/kidney ratio (21 H post-injection)?
**A.** 7.2

**Q.** What about the “Non-target organ uptake: spleen” value [1] of the same compound?
**A.** 0.3 % D/g

**Q.** And the “Non-target organ uptake: stomach” value [1]?
**A.** 0.14 % D/g

**Q.** And the “Non-target organ uptake: thyroid” value [1]?
**A.** 0.36 % D/g

**Q.** What about the “Biodistribution: PC-3 PiP” value (1 H post-injection) of the same compound?
**A.** 78.1 ± 19.1 % ID/g

**Q.** What about the “Biodistribution: PC-3 PiP” value (2 H post-injection) of the same compound?
**A.** 74.7 ± 13.1 % ID/g

**Q.** And the “Biodistribution: PC-3 PiP” value (21 H post-injection)?
**A.** 22.6 ± 22.1 % ID/g

**Q.** And the “Biodistribution: PC-3 flu” value (1 H post-injection)?
**A.** 2.21 ± 0.53 % ID/g

**Q.** What about the “Biodistribution: PC-3 flu” value (2 H post-injection) of the same compound?
**A.** 1.51 ± 0.30 % ID/g

**Q.** And the “Biodistribution: PC-3 flu” value (21 H post-injection)?
**A.** 0.44 ± 0.18 % ID/g

**Q.** What about the “PSMA positive tumor uptake (in words)” value (biodistributions of Tables 2, 3, 9, 10) of the same compound?
**A.** demonstrated PSMA positive tumor uptake

**Q.** What about the “Clearance from the kidneys (in words)” value (compared with [^131I]YC-I-27 and [^211At]YC-I-27) of the same compound?
**A.** clear from the kidneys giving higher tumor to kidney ratios
